Measurements published in patent US12138369B2, “Magnetically-activated coating for treating biofilms, and associated systems and methods” (priority 2016, dated 2024).
Structures can show the parent of a compound that is named as a salt.

Tests used:
[1] = system: dispersed planktonic bacteria (Pseudomonas aeruginosa PAO1); experiment: Optical density measurements of planktonic bacteria dispersed from biofilm; assay type: cell-based
Procedure: Optical Density Measurements of Planktonic Bacteria: The planktonic bacteria that had escaped the biofilm via dispersion after the thermal treatment were optically observed to better understand the biofilm's dispersion post-thermal treatment while antibiotics were still present. To estimate the free-swimming bacteria following the antibiotic treatment, the optical density (BioTek Gen5 Microplate Reader, Winooski, Vt., USA) at 600 nm was measured for each well in the second challenge plate. The negative controls in the challenge plate contained only TSB and were used to calculate an average background.
Statistical Analysis: The statistical analysis of both the planktonic optical density reads and the logarithmic CFU counts were reported via their arithmetic mean and standard deviation. […] Statistical analysis was performed in GraphPad Prism 7 using the two-way ANOVA with a confidence interval of 95%.

[2] = system: Pseudomonas aeruginosa PAO1 biofilms; experiment: MBEC assay: antibiotic exposure with or without thermal shock, biofilm enumeration; assay type: cell-based; details: for viable biofilm bacteria after combined treatment: 1 min thermal shock; for effect on biofilm populations: higher concentrations, antibiotic on its own, cannot reliably eliminate
Procedure: Biofilm Growth: Cryogenically preserved Pseudomonas aerugiona PAO1 (15692, American Type Culture Collection, Manassas, Va.) was thawed and streaked on an agar plate (Difco Nutrient Agar, Sparks, Md., USA). The agar plates were inverted and incubated at 37° C. for 24 hours. An inoculum was made by suspending two colony forming units (CFUs) from the agar plate in five milliliters of sterile tryptic soy broth (TSB, BD Bacto, Sparks, Md., USA) made as directed and incubated at 37° C. for 24 hours, achieving an average concentration of 2.12×109±0.07×10^9 CFU/mL. One milliliter of inoculum was then diluted into 15 mL TSB and mixed gently. One hundred fifty microliters of the diluted mixture was then placed into each well of the 96-well plate, except for the negative control wells which received 150 μL of TSB. The plate was part of an MBEC™ assay (Innovotech, Edmonton, AB, Canada) in which a corresponding array of 96 pegs protrudes from the plate lid into the wells, providing a convenient array of substrates for biofilm growth which are then readily transferred to new wells (Harrison et al. 2010). The peg lid was placed onto the 96-well plate then sealed using Parafilm and placed on an orbital shaker table (VWR 1000, 15 mm orbit, Thorofare, N.J., USA) at 160 rpm and incubated at 37° C. for 24 hours.
Antibiotic Preparation: A stock of 5 mg/mL ciprofloxacin in sterile, de-ionized water was prepared with ciprofloxacin hydrochloride (MP Biomedicals, Santa Ana, Calif., USA) and mixed thoroughly. Tobramycin stock was made in a similar fashion by mixing 5 mg/mL tobramycin sulfate salt (Sigma-Aldrich, St. Louis, Mo., USA) in sterile, de-ionized water. Erythromycin was obtained from MP Biomedicals and the stock was prepared by mixing 5 mg/mL erythromycin into ethanol. Each antibiotic mixture was then filter sterilized through a […] PES membrane sterile filter (Millex®GP filter unit) and stored at 2° C. Each antibiotic was then diluted from the stock solution into sterile TSB at an array of concentrations in a 96-well challenge plate used that day.
Antibiotic Exposure: After 24 hr of growth, the array of biofilm-covered pegs was transferred into a 96-well rinse plate (Costar® 96 well flat bottom cell culture, Corning Incorporated, NY, USA) containing 200 μL/well de-ionized, sterile water at ambient temperature for 2 min to remove bacteria not incorporated in the biofilm. The peg lid was then transferred to a 96-well challenge plate of wells containing 200 μL of various concentrations of ciprofloxacin, tobramycin, or erythromycin diluted in TSB. For the antibiotic experiments without thermal shock the peg lid was exposed to a single challenge plate for 24 hours in an incubator at 37° C. before rinsing again for 2 min in a new rinse plate. The peg lid was then transferred to a recovery plate containing 200 μL/well fresh, sterile TSB for resuspension and enumeration.
Antibiotic and Thermal Exposure: To investigate the combined effect of antibiotics and thermal shock, biofilms cultured and exposed to antibiotics as discussed above were removed from their antibiotic challenge plate after only four hours. They were quickly transferred to a challenge plate with the same array of antibiotic concentrations, preheated to the target temperature by a thermostatted water bath. Temperatures of 37° C., 50° C., 60° C., 70° C., and 80° C. were studied at exposure times of 1, 5, and 30 min. The pegs were left in the heated challenge plate for the desired exposure time, then transferred to a new challenge plate with the same antibiotic concentrations at 37° C. and incubated for the remainder of the total 24 hour antibiotic exposure time. Following 24 total hours of antibiotic exposure time the peg lid was rinsed once again for two minutes in a new rinse plate and placed into a recovery plate for resuspension and enumeration. […]

O=C(O)c1cn(C2CC2)c2cc(N3CCNCC3)c(F)cc2c1=O [Ciprofloxacin, ciprofloxacin hydrochloride]
effect on dispersed planktonic bacteria ([1]; 0.125, 1.0, and 4.0 μg/mL, OD 600 nm): effective against the planktonic bacteria
effect on dispersed planktonic bacteria ([1]; higher two concentrations (1.0, 4.0 μg/mL), regardless of thermal shock): killing off almost all the free-swimming bacteria
effect on biofilms ([2]; 0.125 μg/mL by itself): little effect
reduction of biofilm populations ([2]; 0.125 μg/mL combined with thermal shock at 60° C. for 5 min): five orders of magnitude
reduction of biofilm populations ([2]; 0.125 μg/mL combined with thermal shock at 70° C. for 1 min): five orders of magnitude
viable biofilm bacteria after combined treatment ([2]; 1 μg/mL combined with 70° C.): no viable bacteria
decrease in viable bacteria of biofilms ([2]; 1 μg/mL, regardless of the heating): at least a five-order magnitude decrease
decrease in viable bacteria of biofilms ([2]; 4 μg/mL (bloodstream concentration), regardless of the heating): at least a five-order magnitude decrease
viable biofilm bacteria after combined treatment ([2]; 4 μg/mL combined with 70° C.): no viable bacteria
effect on biofilm populations [2]: significantly reduce biofilm populations

tobramycin sulfate salt
effect on dispersed planktonic bacteria ([1]; 1.0, 2.0, and 4.0 μg/mL, OD 600 nm): effective against the planktonic bacteria
effect on dispersed planktonic bacteria ([1]; higher two concentrations (2.0, 4.0 μg/mL), regardless of thermal shock): killing off almost all the free-swimming bacteria
effect of combined thermal shock and antibiotic on biofilm ([2]; 50° C. for 30 min, 60° C. for 5 min, and 70° C. for 1 min): larger than either treatment by itself
trend of biofilm mitigation with thermal exposure time ([2]; all non-zero concentrations, regardless of temperature (not at 37° C. control)): prolonged thermal exposure time increasing the overall efficacy of biofilm mitigation
effect on biofilm populations [2]: significantly reduce biofilm populations

CC[C@H]1OC(=O)[C@H](C)[C@@H](O[C@H]2C[C@@](C)(OC)[C@@H](O)[C@H](C)O2)[C@H](C)[C@@H](O[C@@H]2O[C@H](C)C[C@H](N(C)C)[C@H]2O)[C@](C)(O)C[C@@H](C)C(=O)[C@H](C)[C@@H](O)[C@]1(C)O [Erythromycin, erythromycin]
effect on dispersed planktonic bacteria ([1]; 2 μg/mL): no discernible effect
effect on dispersed planktonic bacteria ([1]; 64 μg/mL, even without thermal shock): significant reduction in population
effect on dispersed planktonic bacteria ([1]; 128 μg/mL): further decrease in viable planktonic bacterial cells
effect on dispersed planktonic bacteria, combined treatment ([1]; with 60° C. thermal shock for 5 min): significantly reduced from the non-thermal-shocked values
decrease in viable bacteria of biofilms ([2]; 60° C. for 5 min, 64 μg/mL): 1.5 log(CFU/peg)
decrease in viable bacteria of biofilms ([2]; 60° C. for 5 min, 128 μg/mL): 2.7 log(CFU/peg)
decrease in viable bacteria of biofilms ([2]; 70° C. for 1 min, 64 μg/mL): 2.3 log(CFU/peg)
decrease in viable bacteria of biofilms ([2]; 70° C. for 1 min, 128 μg/mL): 6.0 log(CFU/peg)
effect on biofilms ([2]; any concentration, control temperature 37° C.): no effect
effect on biofilms ([2]; any concentration, in combination with 50° C. thermal treatments): no effect
